US11292778B2, “Heterocyclyl polymethine IR chromophores” (The Regents of the University of California, priority 2017, dated 2022)
“And” between values parts separate entries of the source, which are not always exact repeats. Equal values may be shown once. “Also recorded” adds a separate entry of the source. Blank lines part the entries; values can stand above or below the compound they belong to.

Legend:
Type in all cases: physicochemical
[1] = Emission spectra of the dyes in DCM; settings: dichloromethane; for emission (DCM) λmax: dyes 1, 3-6 and reference dyes
Description: (§1) The absorbance spectra in FIG. 2 and FIG. 5 were obtained in DCM on a JASCO V-770 UV-Visible/[…] spectrophotometer with a 2000 nm/min or 4000 nm/min scan rate. Plotted are the baseline corrected and normalized data. The emission spectra in FIG. 2 were taken in DCM on either a Horiba Instruments PTI QuantaMaster Series fluorometer (6), a Fluoromax-3 spectrofluorometer (1, 3-5), or home-built InGaAs array detector (Princeton Instruments). For 6 the following parameters were used: ex. 610 nm, emission collected from 620-900 nm, slits 5 nm, step size 1 nm, integration time 1 s. Plotted is the DCM corrected, baseline corrected, normalized data. For 1, and 3-5, the following parameters were used: slits 5 nm, step size 1 nm, integration time, 0.25 s. Excitation values and emission collection were as follows: 1 (ex. 460, collection 470-800 nm), 5 (ex. 675 nm, collection 685-950 nm), 4 (ex. 840 nm, emission 850-1100 nm), 3 (ex. 730 nm, emission 950-1400). Plotted are the baseline corrected, normalized data. The emission spectra in FIG. 5 were taken in dichloromethane on a Horiba Instruments QuantaMaster Series fluorometer with excitation slits: 15 nm, emission slits: 30 nm, step size: 1 nm, integration time: 0.1 s and excitation wavelengths as indicated.

[2] = Absorbance spectra of the dyes in DCM (UV-Visible/NIR spectrophotometer); settings: for absorption (DCM) ε / absorption (DCM) λmax: dichloromethane; for absorption (DCM) ε: at absorption λmax; for absorption (DCM) λmax: in example paragraphs the longest-wavelength absorbance peak
Description: as §1

[3] = Absolute fluorescence quantum yield using an integrating sphere; settings: for QE, εΦF (quantum efficiency) / ΦF (fluorescence quantum yield): dichloromethane; for ΦF (fluorescence quantum yield): absolute value
Method: Polymethine dyes disclosed herein are characterized with respect to their photophysics including absorption, emission, extinction coefficient, quantum yields, and fluorescence lifetime. All quantum yields values obtained are absolute quantum yields values measured using an integrating sphere. Photostabilities are evaluated by sample irradiation with high powered LEDs. Additionally, solvatochromism, solvent compatibility, and stability are assessed.

[4] = Comparative emission imaging with a SWIR InGaAs camera, 808 nm excitation
Description: (§2) Finally, the photoluminescence of Flav7 was compared to the prominent SWIR polymethine dyes, IR-26 and IR-1061. IR-26 has been widely-employed as a standard for this region, while IR-1061 has recently been the active component of nanomaterials for […] in vivo imaging. Despite numerous studies which rely on these dyes, the reported ΦF for IR-26 have been inconsistent, and the ΦF of IR-1061 has yet to be thoroughly characterized. Consequently, to establish that Flav7 is more emissive than existing SWIR polymethine dyes, each dye's emission was directly compared using a SWIR camera. We prepared solutions of 3, IR-26, and IR-1061 in dichloromethane with identical absorbance at 808 nm, excited with a diffuse 808 nm laser, and imaged their emission over 1000-1500 nm.
Spatially dispersed 808 nm illumination was used to image 1 ml samples in 2.5 mL cuvettes of the SWIR dyes alongside a DCM blank. Each dye was compared at the same position to ensure consistent camera illumination. SWIR images were collected on an InGaAs camera (Princeton Instruments, NIRvana 640) with a 1000 nm long-pass filter. The camera was cooled to −80° C., the analog to digital (AD) conversion rate set to 2 MHz, the gain set to high, and different exposure times used to achieve sufficient signal and/or frame rates. All images were background- and blemish-corrected within the LightField imaging software. […]

[5] = Stability of Flav7 in acetonitrile in the presence of methanol, ethanol or water (absorption over time, LCMS); settings: for change of absorption over time: over 4 hours
Method: Concerned about the structure's susceptibility to nucleophilic attack, the stability of Flav7 in the presence of methanol, ethanol, and water was investigated. 3 was dissolved in acetonitrile, and 1-50% water, ethanol, or methanol was introduced. Changes in absorption spectra over time were monitored. […] Further evidence that 3 is stable to water include UV/Vis monitoring of the dose-dependent addition of water to 3 in acetonitrile followed by water removal.
as §2

Solvatochromism of Flav7 = test: Solvatochromism of Flav7
Description: This family of flavylium dyes has photophysical qualities that are complementary to commonly used cyanine dyes. However, the premier dye in the series is the Flav7 (3) as few emissive polymethine dyes exist in this region. Thus, we thoroughly investigated its stability. First, we explored the solvatochromism of Flav7. […] However, in polar solvents, spectral broadening and accentuation of a high-energy shoulder were observed. This behavior is consistent with SWIR polymethine dyes that experience ground state symmetry breaking due to stabilization of an asymmetric electronic structure.

[6] = Photobleaching under continuous-wave irradiation at 532 nm; settings: for relative rate, krel (photobleaching): 532 nm irradiation; for relative rate, krel (photobleaching) / raw rate, k (photobleaching) / ε at 532 nm / photostability (in words): dichloromethane; for raw rate, k (photobleaching): continuous-wave irradiation 532 nm, 0.53 fluence
Method: Photostabilities of the Flay series were measured under continuous-wave irradiation (532 nm, 0.53 fluence).

SMILES: C1=C(c2ccccc2)Oc2c(cc3c4c2CCCN4CCC3)/C1=C/C=C/C=C/c1cc(-c2ccccc2)[o+]c2c3c4c(cc12)CCCN4CCC3.F[B-](F)(F)F [11-phenyl-9-((1E,3E,5E)-5-(11-phenyl-2,3,6,7-tetrahydro-1H,5H,9H-pyrano[2,3-f]pyrido[3,2,1-ij]quinolin-9-ylidene)penta-1,3-dien-1-yl)-2,3,6,7-tetrahydro-1H,5H-pyrano[2,3-f]pyrido[3,2,1-ij]quinolin-12-ium tetrafluoroborate]
Emission (CH2Cl2) ([1]; Example 4 dyes, excitation 806-900 nm per dye): 934 nm
absorption (DCM) ε [2]: 2.5±0.1×10^5 M^−1cm^−1
absorption (DCM) λmax [2]: 897 nm

emission (DCM) λmax [1]: 587 nm
absorption (DCM) ε [2]: 17000 M⁻¹ cm⁻¹
absorption (DCM) λmax [2]: 510 nm
SMILES: Cc1cc(-c2ccccc2)[o+]c2cc(N(C)C)ccc12 [Dye 1, 7-N,N-dimethylamino-4-methyl-flavylium perchlorate]

SMILES: CN(C)c1ccc2c(c1)OC(c1ccccc1)=C/C2=C\C=C1/CCCC(/C=C/c2cc(-c3ccccc3)[o+]c3cc(N(C)C)ccc23)=C1Cl.[O-][Cl+3]([O-])([O-])[O-] [Dye 3, 4-((E)-2-((E)-2-chloro-3-(2-((E)-7-(dimethylamino)-2-phenyl-4H-chromen-4-ylidene)ethylidene)cyclohex-1-en-1-yl)vinyl)-7-(dimethylamino)-2-phenylchromenylium perchlorate]
QE, εΦF (quantum efficiency) [3]: 1200 M⁻¹ cm⁻¹
ΦF (fluorescence quantum yield) [3]: 0.53±0.03% and 0.53%
ΦF (fluorescence quantum yield) ([3]; listed as Flav7): 0.53% and 0.53±0.3%
QE, εΦF (quantum efficiency) ([3]; listed as Flav7): 1,200 M^−1cm^−1
emission (DCM) λmax [1]: 1045 nm
emission (DCM) λmax ([1]; listed as Flav7): 1061 nm and 1045 nm
brightness relative to IR-26 [4]: 13 times
emission intensity compared with the other SWIR dyes ([4]; dichloromethane, identical absorbance at 808 nm, emission 1000-1500 nm): brightest of the three dyes
absorption red shift past IR-27 [2]: ~40 nm
absorption (DCM) λmax [2]: 1026 nm
degradation by LCMS over time ([5]; 0.1 mg/mL in acetonitrile with 10% water): no appreciable degradation
change of λmax,abs at 1013 nm ([5]; acetonitrile with 1% methanol): rapid loss
change of absorption over time ([5]; acetonitrile with 10% ethanol): slight loss
change of absorption over time ([5]; acetonitrile with 10% water): no significant change
absorbance at 1013 nm after water addition and water removal ([5]; acetonitrile, dose-dependent water addition followed by water removal, UV/Vis): restored upon water removal
variation of λmax,abs between solvents (Solvatochromism of Flav7; dichloromethane, dimethyl sulfoxide, acetonitrile, tetrahydrofuran, acetone): minimal variation
behaviour in methanol (Solvatochromism of Flav7; methanol as solvent): immediate color change
relative rate, krel (photobleaching) [6]: 40. ± 6.
raw rate, k (photobleaching) [6]: 28. ± 3. s^−1 × 10^−3
ε at 532 nm [6]: 1.4 ± 0.2 M^−1cm^−1 × 10^4

SMILES: CN(C)c1ccc2c(c1)OC(c1ccccc1)=C\C2=C/C=C/C=C/c1cc(-c2ccccc2)[o+]c2cc(N(C)C)ccc12.[O-][Cl+3]([O-])([O-])[O-] [Dye 4]
QE, εΦF (quantum efficiency) [3]: 10000 M⁻¹ cm⁻¹
QE, εΦF (quantum efficiency) ([3]; listed as Flav5): 10^3 M^−1cm^−1
Stoke's shift [1]: 46 nm
emission (DCM) λmax [1]: 908 nm
absorption (DCM) λmax [2]: 862 nm
relative rate, krel (photobleaching) [6]: 4.0 ± 0.2
photostability (in words) ([6]; 532 nm laser, listed as Flav5): extremely high photostabilities; also recorded: excellent photostabilities
raw rate, k (photobleaching) [6]: 2.6 ± 0.2 s^−1 × 10^−3
ε at 532 nm [6]: 1.29 ± 0.08 M^−1cm^−1 × 10^4

SMILES: CN(C)c1ccc2c(c1)OC(c1ccccc1)=C/C2=C\C=C\c1cc(-c2ccccc2)[o+]c2cc(N(C)C)ccc12.[O-][Cl+3]([O-])([O-])[O-] [Dye 5, 7-(dimethylamino)-4-((E)-3-((E)-7-(dimethylamino)-2-phenyl-4H-chromen-4-ylidene)prop-1-en-1-yl)-2-phenylchromenylium perchlorate]
QE, εΦF (quantum efficiency) [3]: 6600 M⁻¹ cm⁻¹
ΦF (fluorescence quantum yield) [3]: 2.9±0.5% and 2.9%
emission (DCM) λmax [1]: 766 nm
absorption (DCM) ε ([2]; listed as Flav3): ~220,000 M^−1cm^−1
absorption (DCM) λmax [2]: 746 nm
absorption (DCM) λmax ([2]; listed as Flav3): ~745 nm
relative rate, krel (photobleaching) [6]: 1.00 ± .06
photostability relative to HITCI ([6]; 532 nm laser): 4 fold
photostability (in words) ([6]; 532 nm laser, listed as Flav3): extremely high photostabilities; also recorded: excellent photostabilities
raw rate, k (photobleaching) [6]: 1.00 ± 0.06 s^−1 × 10^−3
ε at 532 nm [6]: 2.0 ± 0.1 M^−1cm^−1 × 10^4

QE, εΦF (quantum efficiency) [3]: 100 M⁻¹ cm⁻¹
ΦF (fluorescence quantum yield) ([3]; 2,2,2-trifluoroacetate): 0.7±0.5% and 0.7%
emission (DCM) λmax [1]: 684 nm
absorption (DCM) λmax [2]: 650 nm
relative rate, krel (photobleaching) [6]: 4 ± 1
raw rate, k (photobleaching) [6]: 0.43 ± 0.01 s^−1 × 10^−3
ε at 532 nm [6]: 0.23 ± 0.08 M^−1cm^−1 × 10^4
SMILES: CN(C)c1ccc2c(c1)OC(c1ccccc1)=C/C2=C\c1cc(-c2ccccc2)[o+]c2cc(N(C)C)ccc12.O=C([O-])C(F)(F)F [Dye 6, (E)-7-(dimethylamino)-4-((7-(dimethylamino)-2-phenyl-4H-chromen-4-ylidene)methyl)-2-phenylchromenylium 2,2,2-trifluoroacetate]
photostability (in words) ([6]; 532 nm laser, listed as Flav1, 2,2,2-trifluoroacetate): extremely high photostabilities; also recorded: excellent photostabilities

ΦF relative to Flav3 [3]: ~10 fold
SMILES: CN1C(=CC=CC=CC=CC2=[N+](C)c3ccccc3C2(C)C)C(C)(C)c2ccccc21.[I-] [HITCI, 1,1′,3,3,3′,3′-hexamethylindotricarbocyanine iodide, reference compound]

SMILES: ClC1=C(/C=C/c2cc(-c3ccccc3)[s+]c(-c3ccccc3)c2)CCC/C1=C/C=C1C=C(c2ccccc2)SC(c2ccccc2)=C1.F[B-](F)(F)F [IR-1061, reference compound]
ΦF (fluorescence quantum yield) [3]: 0.32±0.04%
emission (DCM) λmax [1]: 1081 nm
